Results from the supplement of paper PMC10307832.

Legend:
Assay in all cases: relative viability (nuclei count vs DMSO), 5 days (fraction); higher = more cells survive
BGJ398 + Vorinostat = compound: CCN1CCN(c2ccc(Nc3cc(N(C)C(=O)Nc4c(Cl)c(OC)cc(OC)c4Cl)ncn3)cc2)CC1 [BGJ398] + O=C(CCCCCCC(=O)Nc1ccccc1)NO [Vorinostat] (partner 1 µM)
In short: (§1)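 Lung cancer cell lines in 1536-well plates were dosed by pin tool the day after seeding, either with one drug alone or with a fixed anchor-drug dose plus five library-drug doses (not always all listed) in √10 steps. After 5 days, cells were fixed and their nuclei stained in one step (final 0.05% Triton X-100, 1% formaldehyde, 1 ug/ml Hoechst), then counted on 4× images. Relative viability is the nuclei count in treated wells divided by that in vehicle wells. Values are medians of duplicate plates.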

[1] = compound: C1=CC2=NC=CN=C2C=C1/C=C/3\C(=O)NC(=O)S3 + CC(=O)Nc1cccc(-n2c(=O)n(C3CC3)c(=O)c3c(Nc4ccc(I)cc4F)n(C)c(=O)c(C)c32)c1 [Trametinib] (partner 0.02 µM)
In short: as §1

[2] = compound: C1=CC2=NC=CN=C2C=C1/C=C/3\C(=O)NC(=O)S3 + N=C(N)NC(=N)NCCc1ccccc1 [Phenformin] (partner 250 µM)
In short: as §1

[3] = compound: C1=CC2=NC=CN=C2C=C1/C=C/3\C(=O)NC(=O)S3 + Cc1nc(NC(=O)N2CCC[C@H]2C(N)=O)sc1-c1ccnc(C(C)(C)C(F)(F)F)c1 [Alpelisib] (partner 2 µM)
In short: as §1

Row | Cell Line | relative viability (BGJ398 + Vorinostat; first compound 0.01 µM) | relative viability (BGJ398 + Vorinostat; first compound 0.03162 µM) | relative viability (BGJ398 + Vorinostat; first compound 0.1 µM) | relative viability (BGJ398 + Vorinostat; first compound 0.3162 µM) | relative viability (BGJ398 + Vorinostat; first compound 1 µM) | relative viability ([1]; first compound 0.02 µM) | relative viability ([1]; first compound 0.06325 µM) | relative viability ([1]; first compound 0.2 µM) | relative viability ([1]; first compound 0.6325 µM) | relative viability ([1]; first compound 2 µM) | relative viability ([2]; first compound 0.02 µM) | relative viability ([2]; first compound 0.06325 µM) | relative viability ([2]; first compound 0.2 µM) | relative viability ([2]; first compound 0.6325 µM) | relative viability ([2]; first compound 2 µM) | relative viability ([3]; first compound 0.02 µM) | relative viability ([3]; first compound 0.06325 µM) | relative viability ([3]; first compound 0.2 µM) | relative viability ([3]; first compound 0.6325 µM) | relative viability ([3]; first compound 2 µM)
1 | NCI-H1666 | 1.06 | 0.963 | 1.05 | 0.986 | 0.916 | 0.826 | 0.813 | 0.87 | 0.958 | 0.696 | 0.36 | 0.481 | 0.578 | 0.541 | 0.548 | 0.918 | 1.14 | 0.863 | 0.94 | 0.851
2 | NCI-H1734 | 0.794 | 0.913 | 0.848 | 0.841 | 0.907 | 0.645 | – | 0.802 | 0.625 | 0.653 | 0.392 | 0.35 | 0.384 | 0.343 | 0.279 | 0.707 | – | 0.741 | 0.622 | 0.54
3 | NCI-H1755 | 0.714 | 0.746 | 0.827 | 0.733 | 0.72 | 0.719 | 0.642 | 0.823 | 0.772 | 0.764 | 0.578 | 0.625 | 0.588 | 0.62 | 0.562 | 0.878 | 0.824 | 0.941 | 0.888 | 0.896
4 | NCI-H1793 | 0.767 | 0.574 | 0.728 | 0.515 | 0.421 | 0.411 | 0.334 | 0.434 | 0.421 | 0.529 | 0.416 | 0.32 | 0.452 | 0.334 | 0.322 | 0.655 | 0.811 | 0.728 | 0.709 | 0.742
5 | NCI-H1915 | 0.466 | 0.515 | 0.597 | 0.54 | 0.486 | 0.289 | 0.305 | 0.323 | 0.301 | 0.291 | 0.354 | 0.415 | 0.378 | 0.371 | 0.375 | 1.02 | 1.17 | 1.03 | 1.04 | 1.06
6 | NCI-H1944 | 0.525 | 0.529 | 0.55 | 0.49 | 0.471 | 0.394 | 0.384 | 0.395 | 0.38 | 0.394 | 0.187 | 0.188 | 0.199 | 0.204 | 0.155 | 0.856 | 0.763 | 0.853 | 0.776 | 0.8
7 | NCI-H1975 | 0.677 | 0.794 | 0.758 | 0.677 | 0.672 | 0.273 | 0.361 | 0.355 | 0.33 | 0.241 | 0.406 | 0.448 | 0.408 | 0.402 | 0.312 | 0.603 | 0.778 | 0.63 | 0.574 | 0.578
8 | NCI-H1993 | 0.968 | 0.93 | 0.703 | 0.691 | 0.892 | 0.516 | 0.527 | 0.504 | 0.452 | 0.506 | 0.492 | 0.529 | 0.513 | 0.557 | 0.599 | 0.661 | 0.743 | 0.634 | 0.553 | 0.602
9 | NCI-H2009 | 0.714 | 0.729 | 0.74 | 0.687 | 0.692 | 0.256 | 0.356 | 0.284 | 0.252 | 0.232 | 0.507 | 0.454 | 0.508 | 0.482 | 0.461 | 1.24 | 1.21 | 1.17 | 1.18 | 1.21
10 | NCI-H2023 | 0.673 | 0.683 | 0.715 | 0.664 | 0.54 | 0.511 | 0.539 | 0.516 | 0.428 | 0.427 | 0.441 | 0.452 | 0.438 | 0.426 | 0.329 | 0.57 | 0.609 | 0.587 | 0.606 | 0.511
11 | NCI-H2085 | 0.741 | 0.751 | 0.863 | 0.832 | 0.815 | 0.477 | 0.427 | 0.56 | 0.511 | 0.51 | 0.747 | 0.721 | 0.716 | 0.671 | 0.65 | 0.991 | 1.01 | 1.04 | 0.885 | 1.02
12 | NCI-H2087 | 0.552 | 0.442 | 0.816 | 0.679 | 0.657 | 0.178 | 0.188 | 0.17 | 0.179 | 0.233 | 0.428 | 0.33 | 0.42 | 0.493 | 0.502 | 0.965 | 1.3 | 1.09 | 1.11 | 1.2
13 | NCI-H2126 | 0.768 | 0.787 | 0.861 | 0.775 | 0.765 | 0.481 | 0.591 | 0.538 | 0.533 | 0.48 | 0.503 | 0.581 | 0.567 | 0.534 | 0.339 | 0.662 | 0.786 | 0.752 | 0.757 | 0.639
14 | NCI-H2170 | 0.823 | 0.814 | 0.847 | 0.821 | 0.861 | 0.866 | 1.01 | 1.03 | 0.868 | 0.986 | 0.425 | 0.375 | 0.441 | 0.426 | 0.423 | 0.757 | 0.761 | 0.928 | 0.769 | 0.746
15 | NCI-H2228 | 0.583 | 0.761 | 0.706 | 0.531 | 0.542 | 0.51 | 0.556 | 0.562 | 0.398 | 0.338 | 0.281 | 0.329 | 0.445 | 0.361 | 0.213 | 0.814 | 1.12 | 0.802 | 0.674 | 0.664
16 | NCI-H2347 | 0.63 | 0.763 | 0.606 | 0.55 | 0.608 | 0.296 | 0.295 | 0.225 | 0.312 | 0.156 | 0.352 | 0.322 | 0.422 | 0.394 | 0.375 | 1.02 | 1.09 | 1.08 | 1.07 | 1.02
